Results on 13 molecules are retold here after patent publication US10435405B2, “Pyrazolopyridine compounds and uses thereof” (Incyte Corporation, priority 2016, dated 2019).

In general, Ki refers to a measure of affinity in units of concentration, obtained from inhibition or displacement. Lower therefore signals tighter binding.

The experiment addresses HPK1 (Homo sapiens (Human), UniProt Q92918). As to the kind of experiment: HPK1 Kinase Binding Assay. In a few lines: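 This is a LanthaScreen tracer-binding format: a tracer 222/Eu-anti-GST antibody mix (18 nM and 4 nM solution) is added to active HPK1 (4 nM solution) with 3-fold, 11-point compound dilutions. Incubation is 1 h at 25 °C in HEPES pH 7.5 buffer before reading, and Ki is determined.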

SMILES strings stand for the structures.

Chain of HPK1 (Q92918 1-346): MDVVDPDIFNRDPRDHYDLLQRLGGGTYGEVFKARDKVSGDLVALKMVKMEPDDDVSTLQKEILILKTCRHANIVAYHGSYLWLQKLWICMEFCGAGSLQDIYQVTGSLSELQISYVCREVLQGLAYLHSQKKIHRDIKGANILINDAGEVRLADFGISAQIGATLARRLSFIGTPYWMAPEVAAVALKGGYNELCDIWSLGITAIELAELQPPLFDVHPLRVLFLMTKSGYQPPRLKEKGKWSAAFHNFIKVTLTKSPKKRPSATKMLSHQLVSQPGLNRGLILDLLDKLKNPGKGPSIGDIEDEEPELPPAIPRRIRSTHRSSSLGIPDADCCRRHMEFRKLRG

In the case of `Cc1cc(CNC2CC(O)C2)cc(F)c1-c1cc2c(-c3cnn(C)c3)n[nH]c2cn1` (stereo not shown) [Example 181, 3-(3-Fluoro-5-methyl-4-(3-(1-methyl-1H-pyrazol-4-yl)-1H-pyrazolo[3,4-c]pyridin-5-yl)benzylamino)cyclobutanol], the Ki is no more than 100 nM.

The molecule `CNCc1cc(F)c(-c2cc3c(-c4cnn(C)c4)n[nH]c3cn2)c(C(F)F)c1` [Example 235, 1-(3-(Difluoromethyl)-5-fluoro-4-(3-(1-methyl-1H-pyrazol-4-yl)-1H-pyrazolo[3,4-c]pyridin-5-yl)phenyl)-N-methylmethanamine] showed a Ki of no more than 100 nM. Then `COc1cccc(F)c1-c1cc2c(C(=O)Nc3ccc(N4CCOCC4)cc3)n[nH]c2cn1` [Example 55, 5-(2-Fluoro-6-methoxyphenyl)-N-(4-morpholinophenyl)-1H-pyrazolo[3,4-c]pyridine-3-carboxamide], with no more than 100 nM; and `COc1cccc(F)c1-c1cc2c(NC(=O)c3ccc(C)cc3)n[nH]c2cn1` [Example 2, N-(5-(2-Fluoro-6-methoxyphenyl)-1H-pyrazolo[3,4-c]pyridin-3-yl)-4-methylbenzamide], with no more than 100 nM.

Take `Cc1cccc(F)c1-c1cc2c(NC(=O)c3ccc(N4CCN(C)CC4)cc3NCc3ccnn3C)n[nH]c2cn1` [Example 159, N-(5-(2-Fluoro-6-methylphenyl)-1H-pyrazolo[3,4-c]pyridin-3-yl)-2-((1-methyl-1H-pyrazol-5-yl)methylamino)-4-(4-methylpiperazin-1-yl)benzamide]: the Ki is no more than 100 nM.

Regarding `CC(C)NCc1cc(F)c(-c2cc3c(NC(=O)c4ccc(N5CCN(C)CC5)cc4)n[nH]c3cn2)c(F)c1` [Example 140, N-(5-(2,6-Difluoro-4-((isopropylamino)methyl)phenyl)-1H-pyrazolo[3,4-c]pyridin-3-yl)-4-(4-methylpiperazin-1-yl)benzamide], the inhibition constant Ki was no more than 100 nM. The molecule `CC(C)NCc1cc(F)c(-c2cc3c(C(=O)Nc4ccc(N5CCN(C)CC5)cc4)n[nH]c3cn2)c(F)c1` [Example 155, 5-(2,6-Difluoro-4-((isopropylamino)methyl)phenyl)-N-(4-(4-methylpiperazin-1-yl)phenyl)-1H-pyrazolo[3,4-c]pyridine-3-carboxamide] had an inhibition constant (Ki) of no more than 100 nM.

In the case of `CNCc1ccc(F)c(-c2cc3c(-c4cnn(C)c4)n[nH]c3cn2)c1F` [Example 127, 1-(2,4-Difluoro-3-(3-(1-methyl-1H-pyrazol-4-yl)-1H-pyrazolo[3,4-c]pyridin-5-yl)phenyl)-N-methylmethanamine], the Ki is no more than 100 nM.

`CCN(C)c1cccc(-c2n[nH]c3cnc(-c4c(C)cc(CNC)cc4F)cc23)n1` [Example 118, N-Ethyl-6-(5-(2-fluoro-6-methyl-4-((methylamino)methyl)phenyl)-1H-pyrazolo[3,4-c]pyridin-3-yl)-N-methylpyridin-2-amine] registered an inhibition constant (Ki) of no more than 100 nM. For `Cn1cc(-c2n[nH]c3cnc(-c4c(F)ccc(NC(=O)C5CCC5)c4F)cc23)cn1` [Example 59, N-(2,4-Difluoro-3-(3-(1-methyl-1H-pyrazol-4-yl)-1H-pyrazolo[3,4-c]pyridin-5-yl)phenyl)cyclobutanecarboxamide] the value was no more than 100 nM; for `COc1cc(NC(=O)CN2CCCC2)cc(F)c1-c1cc2c(-c3cnn(C)c3)n[nH]c2cn1` [Example 74, N-(3-Fluoro-5-methoxy-4-(3-(1-methyl-1H-pyrazol-4-yl)-1H-pyrazolo[3,4-c]pyridin-5-yl)phenyl)-2-(pyrrolidin-1-yl)acetamide], no more than 100 nM; for `COc1cccc(F)c1-c1cc2c(NC(=O)c3ccc4c(c3)OCO4)n[nH]c2cn1` [Example 13, N-(5-(2-Fluoro-6-methoxyphenyl)-1H-pyrazolo[3,4-c]pyridin-3-yl)benzo[d][1,3]dioxole-5-carboxamide], no more than 100 nM.

For the molecule `CCn1cc(-c2n[nH]c3cnc(-c4c(C)cc(CNC)cc4F)cc23)cn1` [Example 133, 1-(4-(3-(1-Ethyl-1H-pyrazol-4-yl)-1H-pyrazolo[3,4-c]pyridin-5-yl)-3-fluoro-5-methylphenyl)-N-methylmethanamine], the Ki was no more than 100 nM.
